Reference: patent US20220324865A1 (Bayer Aktiengesellschaft, priority 2018, published 2022)

What follows are compounds tested against T1, human EP3 receptor (Homo sapiens, UniProt P43115) (assay: Cellular in vitro assay for determining EP3 receptor activity (human EP3 cell line, sulprostone-stimulated calcium luminescence)). Settings: CHO cells expressing human EP3 and mitochondrial Clytin; antagonist mode, sulprostone at EC50; read-out: EP3 CHO mtCLY ANTAG IC50.
T1 construct: expressed in transfected cells; host or cells: CHO K1 (Chinese Hamster Ovary), stably co-transfected with Galpha16 and mitochondrial clytin
T1 sequence (P43115 1-390): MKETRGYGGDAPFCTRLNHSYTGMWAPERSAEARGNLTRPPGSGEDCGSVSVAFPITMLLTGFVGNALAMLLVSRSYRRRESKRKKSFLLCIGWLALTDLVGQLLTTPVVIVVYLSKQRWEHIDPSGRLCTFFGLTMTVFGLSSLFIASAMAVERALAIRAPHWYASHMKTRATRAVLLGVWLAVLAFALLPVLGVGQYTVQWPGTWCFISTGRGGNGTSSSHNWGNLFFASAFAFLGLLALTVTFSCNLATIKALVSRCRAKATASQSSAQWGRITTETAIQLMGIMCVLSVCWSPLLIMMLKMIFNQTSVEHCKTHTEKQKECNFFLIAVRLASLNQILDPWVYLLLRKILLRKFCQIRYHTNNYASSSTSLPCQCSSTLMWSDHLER
Type: cell-based
In short: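 Antagonist activity was measured as inhibition of the luminescent calcium signal elicited by EC50 sulprostone, following 10 min compound pretreatment. The cell line was recombinant CHO K1 co-expressing human EP3, Gα16 and the photoprotein Clytin, reconstituted with coelenterazine.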

Row | IC50 [nM] | Compound
1 | 3.6 | CC(C)C(NC(=O)c1cc2c(=O)[nH]c(-c3ccc4ccccc4c3)cn2n1)c1ccc(F)cc1 (stereo not drawn) [Example 2-48, N-[1-(4-Fluorophenyl)-2-methylpropyl]-6-(2-naphthyl)-4-oxo-4,5-dihydropyrazolo[1,5-a]pyrazine-2-carboxamide]
2 | 2.3 | COc1ccc(C2(NC(=O)c3cc4c(=O)[nH]c(-c5ccc6c(c5)OCCO6)cn4n3)CN(C(=O)OC(C)(C)C)C2)cc1 [6-58]
3 | 0.45 | CC(C)(O)[C@@H](NC(=O)c1nn2cc(-c3cccc(Cl)c3)[nH]c(=O)c2c1C1CC1)c1ccc(F)cc1 [6-677]
4 | 4.65 | Cc1c(C(=O)N[C@H]2CCc3ccccc32)nn2c(C)c(-c3ccc4ccccc4c3)[nH]c(=O)c12 [Example 3-29, N-[(7S)-2,3-Dihydro-1H-inden-1-yl]-3,7-dimethyl-6-(naphthalen-2-yl)-4-oxo-4,5-dihydropyrazolo[1,5-a]pyrazine-2-carboxamide]
5 | 6.5 | Cc1cccc2ncc(-c3cn4nc(C(=O)N[C@H]5CC[C@H](O)CC5)c(C(C)C)c4c(=O)[nH]3)cc12 [Example 4-32, N-(trans-4-Hydroxycyclohexyl)-3-isopropyl-6-(5-methylquinolin-3-yl)-4-oxo-4,5-dihydropyrazolo[1,5-a]pyrazine-2-carboxamide]
6 | 9.75 | Cc1ccc(-c2cn3nc(C(=O)NCCNCC(F)F)c(C(F)(F)F)c3c(=O)[nH]2)cc1Cl [6-165]
7 | 3.7 | CCc1ccc(C(C)NC(=O)c2nn3cc(-c4cnc5cccc(C)c5c4)[nH]c(=O)c3c2C(C)C)cc1 (stereo not drawn) [Example 4-9, N-[1-(4-Ethylphenyl)ethyl]-3-isopropyl-6-(5-methyl-3-quinolyl)-4-oxo-5H-pyrazolo[1,5-a]pyrazine-2-carboxamide]
8 | 2.8 | CC(NC(=O)c1cc2c(=O)[nH]c(-c3ccc4ccccc4c3)cn2n1)c1ccc(OCC(F)(F)F)cn1 (stereo not drawn) [6-6]
9 | 1.65 | CC(NC(=O)c1cc2c(=O)[nH]c(-c3ccc4c(c3)OCCO4)cn2n1)c1ccc(F)cc1 (stereo not drawn) [Example 5-2, 6-(2,3-Dihydro-1,4-benzodioxin-6-yl)-N-[1-(4-fluorophenyl)ethyl]-4-oxo-5H-pyrazolo[1,5-a]pyrazine-2-carboxamide]
10 | 0.28 | Cc1cc(-c2cn3nc(C(=O)N[C@H](CCO)c4ccc(F)cc4)c(C4CC4)c3c(=O)[nH]2)ccc1Cl [6-343]
11 | 1.35 | Cc1ccc(-c2cn3nc(C(=O)NCC(O)C(F)(F)F)c(C4CC4)c3c(=O)[nH]2)cc1C(F)(F)F (single isomer, unassigned) [6-245]
12 | 5.5 | N#Cc1c(C(=O)N[C@@H]2CCCc3ccccc32)nn2cc(-c3ccc4ccccc4c3)[nH]c(=O)c12 [Example 3-48, 3-Cyano-6-(naphthalen-2-yl)-4-oxo-N-[(7R)-1,2,3,4-tetrahydronaphthalen-1-yl]-4,5-dihydropyrazolo[1,5-a]pyrazine-2-carboxamide]
13 | 2.85 | Cc1ccc(-c2cn3nc(C(=O)N[C@@H](C4CC4)C(C)(C)O)c(C4CC4)c3c(=O)[nH]2)cc1Cl [6-275]
14 | 0.37 | Cc1cc(-c2cn3nc(C(=O)N[C@H](CCO)c4ccc(F)cc4)c(C(F)(F)F)c3c(=O)[nH]2)ccc1Cl [6-233]
15 | 2.3 | Cc1ccc(-c2cn3nc(C(=O)NC(CO)C(F)(F)F)c(C(F)(F)F)c3c(=O)[nH]2)cc1Cl (single isomer, unassigned) [6-163]
16 | 3.15 | Cc1cc(-c2cn3nc(C(=O)N[C@@H](c4ccc(F)cc4)C(C)(C)O)c(C(F)(F)F)c3c(=O)[nH]2)ccc1Cl [Example 1-166, 6-(4-Chloro-3-methylphenyl)-N-[(1S)-1-(4-fluorophenyl)-2-hydroxy-2-methylpropyl]-4-oxo-3-(trifluoromethyl)-4,5-dihydropyrazolo[1,5-a]pyrazine-2-carboxamide]
17 | 8.75 | C[C@H](NC(=O)c1cc2c(=O)[nH]c(-c3ccc4ccccc4c3)cn2n1)c1cccc2ccccc12 [Example 2-6]
18 | 0.49 | Cc1ccc(-c2cn3nc(C(=O)NC(C)C4CCC4)c(C4CC4)c3c(=O)[nH]2)cc1Cl (stereo not drawn) [6-279]
19 | 3.15 | Cc1cccc2ncc(-c3cn4nc(C(=O)N[C@H](CCO)c5ccccc5)cc4c(=O)[nH]3)cc12 [Example 1-114, N-[(1R)-3-Hydroxy-1-phenylpropyl]-6-(5-methylquinolin-3-yl)-4-oxo-4,5-dihydropyrazolo[1,5-a]-pyrazine-2-carboxamide]
20 | 7.12 | Cc1ccc(-c2cn3nc(C(=O)NCC(O)C(F)(F)F)c(C)c3c(=O)[nH]2)cc1F (racemic) [6-409]
21 | 1.15 | Cc1cccc2ncc(-c3cn4nc(C(=O)NC5CCOc6ccccc65)c(C(C)C)c4c(=O)[nH]3)cc12 (stereo not drawn) [Example 4-65, N-(3,4-Dihydro-2H-chromen-4-yl)-3-isopropyl-6-(5-methylquinolin-3-yl)-4-oxo-4,5-dihydropyrazolo[1,5-a]pyrazine-2-carboxamide]

Row | IC50 [nM] | Compound
22 | 1.9 | Cc1cc(-c2cn3nc(C(=O)NC4(c5ccc(F)cc5)CN(CC(F)(F)F)C4)c(C(F)(F)F)c3c(=O)[nH]2)ccc1Cl [6-237]
23 | 3.03 | Cc1cc(-c2cn3nc(C(=O)N[C@@H](c4ccc(F)cc4)C(F)(F)CO)c(C(F)(F)F)c3c(=O)[nH]2)ccc1F [6-647]
24 | 3.37 | O=C(NCCN(CC(F)F)C1CC1)c1nn2cc(-c3ccc4ccccc4c3)[nH]c(=O)c2c1C(F)(F)F [6-527]
25 | 0.84 | Cc1cccc2ncc(-c3cn4nc(C(=O)NC5(c6ccccc6)CC5)c(C(C)C)c4c(=O)[nH]3)cc12 [Example 4-43, 6-(5-Methylquinolin-3-yl)-4-oxo-N-(1-phenylcyclopropyl)-3-(propan-2-yl)-4,5-dihydropyrazolo[1,5-a]pyrazine-2-carboxamide]
26 | 0.62 | O=C(NC(c1ccc(F)cc1)C1(O)CC1)c1nn2cc(-c3ccc(Cl)c(Cl)c3)[nH]c(=O)c2c1C1CC1 (single isomer, unassigned) [6-423]
27 | 0.79 | Cc1c(C(=O)NCCn2ccc(C3CC3)n2)nn2c(C)c(-c3ccc4ccccc4c3)[nH]c(=O)c12 [Example 3-1, N-[2-(3-Cyclopropyl-1H-pyrazol-1-yl)ethyl]-3,7-dimethyl-6-(naphthalen-2-yl)-4-oxo-4,5-dihydropyrazolo[1,5-a]pyrazine-2-carboxamide]
28 | 2.9 | COC[C@H](Cc1ccccc1)NC(=O)c1cc2c(=O)[nH]c(-c3ccc4ccccc4c3)cn2n1 [Example 2-25, N-[(2S)-1-Methoxy-3-phenylpropan-2-yl]-6-(2-naphthyl)-4-oxo-4,5-dihydropyrazolo[1,5-a]pyrazine-2-carboxamide]
29 | 7.5 | COC[C@@H](C)NC(=O)c1nn2cc(-c3ccc(C(F)(F)F)c(C)c3)[nH]c(=O)c2c1C1CC1 [6-136]
30 | 4.85 | CC[C@H](C)NC(=O)c1nn2cc(-c3ccc(Cl)c(C)c3)[nH]c(=O)c2c1C1CC1 [6-331]
31 | 0.95 | CN1CCOc2cc(-c3cn4nc(C(=O)N[C@H](CCO)c5ccc(F)cc5)cc4c(=O)[nH]3)ccc21 [Example 1-37, N-[(1R)-1-(4-Fluorophenyl)-3-hydroxopyl]-6-(4-methyl-3,4-dihydro-2H-1,4-benzoxazin-7-yl)-4-oxo-4,5-dihydropyrazolo[1,5-a]pyrazine-2-carboxamide]
32 | 6.3 | Cc1ccc(-c2cn3nc(C(=O)NC(CO)C(F)(F)F)c(C4CC4)c3c(=O)[nH]2)cc1C(F)(F)F (single isomer, unassigned) [6-250]
33 | 2 | Cc1cc(-c2cn3nc(C(=O)N[C@@H](c4ccc(F)cc4)[C@H](O)C(F)(F)F)c(C4CC4)c3c(=O)[nH]2)ccc1Cl [6-315]
34 | 5.75 | Cc1ccc(-c2cn3nc(C(=O)NCc4ncc(C(F)(F)F)cc4Cl)cc3c(=O)[nH]2)cc1C [6-9]
35 | 8.63 | COc1ccc(CCNC(=O)c2cc3c(=O)[nH]c(-c4ccc5ccccc5c4)cn3n2)cc1OC [6-75]
36 | 0.905 | Cc1ccc(-c2cn3nc(C(=O)N[C@@H](c4ccc(F)cc4)C(C)(C)O)c(C(F)(F)F)c3c(=O)[nH]2)cc1C [Example 1-67, 6-(3,4-Dimethylphenyl)-N-[(1S)-1-(4-fluorophenyl)-2-hydroxy-2-methylpropyl]-4-oxo-3-(trifluoro-methyl)-4,5-dihydropyrazolo[1,5-a]pyrazine-2-carboxamide]
37 | 46 | Cc1ccc(-c2cn3nc(C(=O)NC4(c5ccc(F)cc5)CCN(C)C4)cc3c(=O)[nH]2)cc1C (single isomer, unassigned) [6-363]
38 | 7.6 | Cc1c(C(=O)NC(CO)c2cc(Cl)cc(Cl)c2)nn2c(C)c(-c3ccc4ccccc4c3)[nH]c(=O)c12 (stereo not drawn) [Example 3-40, N-[1-(3,5-Dichlorophenyl)-2-hydroxyethyl]-3,7-dimethyl-6-(2-naphthyl)-4-oxo-5H-pyrazolo[1,5-a]pyrazine-2-carboxamide]
39 | 1.1 | Cc1ccc(-c2cn3nc(C(=O)NCC(N)C(F)(F)F)c(C4CC4)c3c(=O)[nH]2)cc1C (single isomer, unassigned) [6-432]
40 | 2 | Cc1c(C(=O)N[C@H](C)c2ccccc2)nn2c(C)c(-c3ccc4ccccc4c3)[nH]c(=O)c12 [Example 3-65, 3,7-Dimethyl-6-(naphthalen-2-yl)-4-oxo-N-[(1R)-1-phenylethyl]-4,5-dihydropyrazolo[1,5-a]pyrazine-2-carboxamide]
41 | 1.8 | Cc1ccc(-c2cn3nc(C(=O)N[C@@H](c4ccc(F)cc4)C(C)(C)O)c(C(F)(F)C(F)(F)F)c3c(=O)[nH]2)cc1F [6-492]
42 | 3.03 | Cc1ccc(-c2cn3nc(C(=O)N[C@H](C)C(C)(C)C)c(C(F)(F)F)c3c(=O)[nH]2)cc1Cl [6-192]
